Data set [1] addresses T1, Pichia stipitis xylose reductase (Ps-XR) (Scheffersomyces stipitis, UniProt P31867).
T1 construct: gene XYL1; XYL1 gene product overproduced in S. cerevisiae TMB3260 (PGK1p-XYL1); purified by Red-Sepharose and gel filtration; no tag mentioned
T1 sequence (P31867 1-318): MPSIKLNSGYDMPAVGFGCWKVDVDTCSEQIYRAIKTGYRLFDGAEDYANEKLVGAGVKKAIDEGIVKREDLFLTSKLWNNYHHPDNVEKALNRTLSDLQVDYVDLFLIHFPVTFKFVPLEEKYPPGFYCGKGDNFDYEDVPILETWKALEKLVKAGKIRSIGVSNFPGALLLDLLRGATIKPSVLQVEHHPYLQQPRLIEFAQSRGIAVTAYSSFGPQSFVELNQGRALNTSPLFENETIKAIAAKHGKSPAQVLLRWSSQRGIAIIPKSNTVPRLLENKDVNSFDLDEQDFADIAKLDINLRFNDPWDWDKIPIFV
In words: NADPH oxidation at […] nm, non-linear regression, substrate-inhibition model with Hill coefficient. The format is biochemical. To be noted: NADPH as cofactor, Hill coefficient n = 3.51, 100 mM phosphate pH 7.0, 30 °C, unit of Ki not printed (Km in mM).

Substrate in the data set “purified protein”: O=Cc1ccc(CO)o1
In words: purified protein. In kind it is biochemical, Scheffersomyces stipitis. As to conditions: NADPH as cofactor, substrate-inhibition model, 100 mM phosphate pH 7.0, 30 °C.

As to `O=Cc1ccc(CO)o1` [HMF], the Ki in data set [1] is 95.0.

B1: Pichia stipitis xylose reductase (Ps-XR) (Scheffersomyces stipitis CBS 6054) (protein)
chain: T1 sequence (P31867 1-318)
notes: XYL1 gene product overproduced in S. cerevisiae TMB3260 (PGK1p-XYL1); purified by Red-Sepharose and gel filtration; no tag mentioned
In general, Km refers to the concentration of substrate that gives half-maximal velocity. B1: the Michaelis-Menten constant (Km) in the data set “purified protein” amounted to 40 mM.
